Reference: ChEMBL document CHEMBL5244248, “A novel long-acting oxyntomodulin analogue eliminates diabetes and obesity in mice” (Eur J Med Chem, 2020)

System: INS1
Assay: Anti-apoptotic activity in rat INS1 cells assessed as reduction in cytokine-induced cell apoptosis at 100 nM treated for 1 hr prior to TNF-alpha and IL-1beta challenge
Format: functional

CC[C@H](C)[C@H](NC(=O)[C@H](Cc1ccccc1)NC(=O)[C@H](CCC(=O)O)NC(=O)[C@H](CCCCN)NC(=O)[C@H](C)NC(=O)[C@H](C)NC(=O)[C@H](CCC(N)=O)NC(=O)CNC(=O)[C@H](CCC(=O)O)NC(=O)[C@H](CC(C)C)NC(=O)[C@H](Cc1ccc(O)cc1)NC(=O)[C@H](CO)NC(=O)[C@H](CO)NC(=O)[C@@H](NC(=O)[C@H](CC(=O)O)NC(=O)[C@H](CO)NC(=O)[C@@H](NC(=O)[C@H](Cc1ccccc1)NC(=O)[C@@H](NC(=O)CNC(=O)[C@H](CCC(=O)O)NC(=O)[C@H](C)NC(=O)[C@@H](N)Cc1cnc[nH]1)[C@@H](C)O)[C@@H](C)O)C(C)C)C(=O)N[C@@H](C)C(=O)N[C@@H](Cc1c[nH]c2ccccc12)C(=O)N[C@@H](CC(C)C)C(=O)N[C@H](C(=O)N[C@@H](CCCCN)C(=O)NCC(=O)N[C@@H](CCCNC(=N)N)C(=O)O)C(C)C
inhibition at 0.1 µM: 40.4%
